Earlier results as cited in patent US6936590B2, “C-aryl glucoside SGLT2 inhibitors and method” (Bristol Myers Squibb Company, priority 2001, dated 2005).

Legend:
human SGLT1 = biological target: T1, human SGLT1 (Homo sapiens, UniProt P13866); conditions: read-out: Km values for uptake
T1 sequence (P13866 1-664): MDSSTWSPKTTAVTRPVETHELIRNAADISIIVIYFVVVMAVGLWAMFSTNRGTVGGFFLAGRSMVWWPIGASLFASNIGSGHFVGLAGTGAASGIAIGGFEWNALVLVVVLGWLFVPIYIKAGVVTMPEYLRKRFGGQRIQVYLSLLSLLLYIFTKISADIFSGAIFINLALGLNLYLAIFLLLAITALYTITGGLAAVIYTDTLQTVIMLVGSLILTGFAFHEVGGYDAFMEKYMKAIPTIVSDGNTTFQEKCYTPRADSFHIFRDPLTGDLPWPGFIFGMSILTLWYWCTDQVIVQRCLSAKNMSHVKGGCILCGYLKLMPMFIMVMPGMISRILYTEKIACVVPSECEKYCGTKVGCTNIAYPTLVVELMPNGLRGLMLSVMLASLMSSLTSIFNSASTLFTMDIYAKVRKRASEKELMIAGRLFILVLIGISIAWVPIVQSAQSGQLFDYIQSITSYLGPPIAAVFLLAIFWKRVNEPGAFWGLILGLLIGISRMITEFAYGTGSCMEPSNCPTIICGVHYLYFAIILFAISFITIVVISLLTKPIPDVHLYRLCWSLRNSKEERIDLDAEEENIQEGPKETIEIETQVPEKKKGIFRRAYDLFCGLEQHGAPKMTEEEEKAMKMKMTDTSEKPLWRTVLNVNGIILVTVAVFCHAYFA

human SGLT2 = biological target: T2, human SGLT2 (Homo sapiens, UniProt P31639); conditions: read-out: Km values for uptake
T2 sequence (P31639 1-672): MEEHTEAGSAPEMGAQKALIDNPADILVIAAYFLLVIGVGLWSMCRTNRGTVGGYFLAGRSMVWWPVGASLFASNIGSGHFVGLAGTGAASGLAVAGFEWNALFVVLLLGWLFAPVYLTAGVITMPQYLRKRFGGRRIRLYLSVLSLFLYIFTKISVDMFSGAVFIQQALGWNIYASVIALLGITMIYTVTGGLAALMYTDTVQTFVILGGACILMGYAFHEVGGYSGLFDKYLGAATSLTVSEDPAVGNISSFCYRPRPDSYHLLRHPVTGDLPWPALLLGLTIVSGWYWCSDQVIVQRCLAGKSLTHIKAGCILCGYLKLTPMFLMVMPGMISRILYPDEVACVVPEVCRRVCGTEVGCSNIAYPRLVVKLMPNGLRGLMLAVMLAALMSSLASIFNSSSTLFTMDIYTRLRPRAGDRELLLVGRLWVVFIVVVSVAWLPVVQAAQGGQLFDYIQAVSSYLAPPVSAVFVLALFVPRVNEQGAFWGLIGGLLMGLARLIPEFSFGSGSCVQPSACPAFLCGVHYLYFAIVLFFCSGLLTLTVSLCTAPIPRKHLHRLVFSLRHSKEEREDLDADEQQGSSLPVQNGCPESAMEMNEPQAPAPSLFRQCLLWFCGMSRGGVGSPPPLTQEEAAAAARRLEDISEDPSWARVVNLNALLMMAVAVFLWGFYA

Row | SMILES | adverse effects on plasma ion balance, renal function or renal morphology (SGLT activity; phlorizin treatment for as long as two weeks) | effect on glucose excretion and plasma glucose (SGLT activity; several diabetic rodent models and one canine diabetes model) | Km (human SGLT1) | Km (human SGLT2)
1 | O=C(CCc1ccc(O)cc1)c1c(O)cc(O)cc1O[C@@H]1O[C@H](CO)[C@@H](O)[C@H](O)[C@H]1O [phlorizin] | No adverse effects on plasma ion balance, renal function or renal morphology have been observed | promoting glucose excretion, lowering fasting and fed plasma glucose, and promoting glucose utilization without hypoglycemic side effects |  | 
2 | CO[C@H]1O[C@H](CO)[C@@H](O)[C@H](O)[C@H]1O [AMG, α-methyl-D-glucopyranoside] |  |  | 400 µM | 1.6 mM
